In series [1] the target is T1, recombinant human plasminogen activator inhibitor-1 (PAI-1) (Homo sapiens, UniProt P05121).
T1 construct: purchased Molecular Innovations, Royal Oak, Mich
The experiment in a line: Screening for PAI-1 inhibition (chromogenic tPA activity assay, Spectrozyme-tPA). The class given is biochemical. The conditions noted are these: for IC50: footnote b: IC50 determined by a modification of the Primary Screen for PAI-1 Inhibition. The procedure:
Screening for PAI-1 inhibition. Test compounds are dissolved in DMSO at a final concentration of 10 mM, then diluted 100×in physiologic buffer. The inhibitory assay is initiated by the addition of the test compound (1-100 μM final concentration, maximum DMSO concentration of 0.2%) in a pH 6.6 buffer containing 140 nM recombinant human plasminogen activator inhibitor-1 (PAI-1; Molecular Innovations, Royal Oak, Mich.). Following a 1 hour incubation at room temperature, 70 nM of recombinant human tissue plasminogen activator (tPA) is added, and the combination of the test compound, PAI-1 and tPA is incubated for an additional 30 minutes. Following the second incubation, Spectrozyme-tPA (American Diagnostica, Greenwich, Conn.), a chromogenic substrate for tPA, is added and absorbance read at 405 nm at 0 and 60 minutes. Relative PAI-1 inhibition is equal to the residual tPA activity in the presence of the test compounds and PAI-1. Control treatments include the complete inhibition of tPA by PAI-1 at the molar ratio employed (2:1), and the absence of any effect of the test compound on tPA alone.

The next series addresses human PAI-1 (Homo sapiens, UniProt P05121). The experiment in a line: Assay for determining the IC50 of inhibition of PAI-1 (active PAI-1 bound to tPA-coated plate, 33B8 antibody detection). The conditions noted are these: human PAI-1 50 ng/ml, pH 7.5. The format is biochemical. The procedure:
Assay for determining the IC50 of inhibition of PAI-1. This assay is based upon the non-SDS dissociable interaction between tPA and active PAI-1. Assay plates are initially coated with human tPA (10 μg/ml). Test compounds are dissolved in DMSO at 10 mM, then diluted with physiologic buffer (pH 7.5) to a final concentration of 1-50 μM. The test compounds are incubated with human PAI-1 (50 ng/ml) for 15 minutes at room temperature. The tPA-coated plate is washed with a solution of 0.05% Tween 20 and 0.1% BSA, then the plate is blocked with a solution of 3% BSA. An aliquot of the test compound/PAI-1 solution is then added to the tPA-coated plate, incubated at room temperature for 1 hour, and washed. Active PAI-1 bound to the plate is assessed by adding an aliquot of a 1:1000 dilution of the 33B8 monoclonal antibody against human PAI-1, and incubating the plate at room temperature for 1 hour (Molecular Innovations, Royal Oak, Mich.). The plate is again washed, and a solution of goat anti-mouse IgG-alkaline phosphatase conjugate is added at a 1:50,000 dilution in goat serum. The plate is incubated 30 minutes at room temperature, washed, and a solution of alkaline phosphatase substrate is added. The plate is incubated 45 minutes at room temperature, and color development is determined at OD405 nm. The quantitation of active PAI-1 bound to tPA at varying concentrations of the test compound is used to determine the IC50. Results are analyzed using a logarithmic best-fit equation. The assay sensitivity is 5 ng/ml of human PAI-1 as determined from a standard curve ranging from 0-100 ng/ml.

Setting [2] is: PAI-1 inhibition at 25 μM test compound, pH 6.6 buffer, 140 nM PAI-1, 70 nM tPA.

T1 sequence (P05121 24-402): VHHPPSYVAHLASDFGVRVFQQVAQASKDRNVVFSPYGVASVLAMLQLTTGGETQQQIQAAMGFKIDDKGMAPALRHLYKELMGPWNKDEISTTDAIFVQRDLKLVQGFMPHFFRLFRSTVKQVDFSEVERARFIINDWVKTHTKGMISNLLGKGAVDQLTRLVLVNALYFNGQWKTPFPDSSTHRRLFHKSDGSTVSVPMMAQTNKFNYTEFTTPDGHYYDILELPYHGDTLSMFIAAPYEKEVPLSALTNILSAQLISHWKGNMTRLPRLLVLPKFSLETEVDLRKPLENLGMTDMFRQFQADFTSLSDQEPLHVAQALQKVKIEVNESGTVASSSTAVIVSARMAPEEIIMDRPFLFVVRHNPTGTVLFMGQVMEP
Sequence of human PAI-1 (P05121 24-402): as above

Consider `O=C(Nc1cc(OCCCO/N=C/c2ccc(-c3ccccc3)cc2)ccc1C(=O)O)c1ccc(C(F)(F)F)cc1` [Compound 20, 4-[3-({[(1E)-1,1′-Biphenyl-4-ylmethylidene]amino}oxy)propoxy]-2-{[4-(trifluoromethyl)benzoyl]amino}benzoic Acid], for which the melting point (commonly the temperature of the solid-liquid transition) is 205.6 to 206.6 °C. Further, the IC50 (in general, the concentration at which inhibition is half-maximal) in series [1] came out at 25.7 µM.
`CC(C)(C)c1ccc(C=NOCCOc2ccc(C(=O)O)c(OCc3ccc(C(F)(F)F)cc3)c2)cc1` [Compound 14, 4-{2-[({[4-(tert-Butyl)phenyl]methylidene}amino)oxy]ethoxy}-2-{[4-(trifluoromethyl)benzyl]oxy}benzoic acid] showed a melting point of 164.1 to 164.8 °C. Further, the inhibition (usually the percentage by which the read-out fell short of the control) at 25 µM in series [1] (setting [2]) turned out to be 28%.
In turn, `O=C(O)c1ccc(OCCCO/N=C/c2ccc(-c3ccccc3)cc2)cc1NC(=O)c1ccccc1C(F)(F)F` [Compound 26, 4-[3-({[(1E)-1,1′-biphenyl-4-ylmethylidene]amino}oxy)propoxy]-2-{[2-(trifluoromethyl)benzoyl]amino}benzoic Acid] yielded a melting point of 170.5 to 172.5 °C. In addition, in series [1] (setting [2]), the inhibition at 25 µM is 24%.
Compound `CC(C)(C)c1ccc(/C=N/OCCCOc2ccc(C(=O)O)c(NC(=O)c3ccc(C(C)(C)C)cc3)c2)cc1` [Compound 18, 2-{[4-(tert-Butyl)benzoyl]amino}-4-{3-[({(E)-[4-(tert-butyl)phenyl]methylidene}amino)oxy]propoxy}benzoic Acid] showed a melting point of 192.3 to 193.8 °C. For the same compound, the IC50 in series [1] is 18.5 µM.
The compound `CC(=NOCCCOc1ccc(CC(=O)O)cc1)c1ccc(C(C)(C)C)cc1` [Compound 1, (4-{3-[1-(4-tert-Butyl-phenyl)-ethylideneaminooxy]-propoxy}-phenyl)-acetic Acid] came in with a melting point of 98.7 to 99.7 °C. Further, in series [1] (setting [2]), the inhibition at 25 µM came to 39%.
On to `CC(C)(C)c1ccc(/C=N/OCCCOc2ccc(C(=O)O)c(NC(=O)c3ccc4ccccc4c3)c2)cc1` [Compound 34, 4-[3-({[(1E)-(4-tert-Butylphenyl)methylidene]amino}oxy)propoxy]-2-(2-naphthoylamino)benzoic Acid], for which the melting point was 156 to 158 °C. Moreover, the inhibition at 25 µM in series [1] (setting [2]) was found to be 14%.
For `CC(C)(C)c1ccc(/C=N/OCCCOc2ccc(CCC(=O)O)cc2)cc1` [Compound 16, 3-(4-{3-[({(E)-[4-(tert-butyl)phenyl]methylidene}amino)oxy]propoxy}phenyl)propanoic Acid], the melting point lay in the range of 101.2 to 102.1 °C. Moreover, in series [1] (setting [2]), the inhibition at 25 µM turned out to be 42%.
The compound `O=C(Nc1cc(OCCCO/N=C/c2cc(C(F)(F)F)cc(C(F)(F)F)c2)ccc1C(=O)O)c1ccc(OC(F)(F)F)cc1` [Compound 28, 4-{3-[({(1E)-[3,5-Bis (trifluoromethyl)phenyl]methylidene}amino)oxy]propoxy}-2-{[4-(trifluoromethoxy)benzoyl]amino}benzoic Acid] displayed a melting point of 184.5 to 185.5 °C. Further, the inhibition at 25 µM in series [1] (setting [2]) was found to be 51%.
Regarding `CC(=NOCCOc1ccc(C(=O)O)c(OC(=O)c2ccc(C(C)(C)C)cc2)c1)c1ccccc1` [Compound 6], the IC50 against human PAI-1 stood at 16.7 µM.
With `CC(=NOCc1ccc(CC(=O)O)cc1)c1ccc(C(C)(C)C)cc1` [Compound 2, {4-[1-(4-tert-Butyl-phenyl)-ethylideneaminooxymethyl]-phenyl}-acetic Acid], the melting point was 148.9 to 150 °C. Also, the inhibition at 25 µM in series [1] (setting [2]) worked out at 30%.
Take `CC(C)(C)c1ccc(/C=N/OCCOc2ccc(C(=O)O)c(OC(=O)c3ccc(C(F)(F)F)cc3)c2)cc1` [Compound 8, 4-{2-[({(E)-[4-(tert-Butyl)phenyl]methylidene}amino)oxy]ethoxy}-2-{[4-(trifluoromethyl)benzoyl]oxy}benzoic Acid]: the melting point was in the range of 146.3 to 147.9 °C. Besides, in series [1] (setting [2]), the inhibition at 25 µM came out at 1%.
In the case of `CC(C)(C)c1ccc(/C=N/OCCCOc2ccc(C(=O)O)c(NC(=O)c3ccc(-c4ccccc4)cc3)c2)cc1` [Compound 36, 2-[(1,1′-Biphenyl-4-ylcarbonyl)amino]-4-[3-({[(1E)-(4-tert-butylphenyl)methylidene]amino}oxy)propoxy]benzoic Acid], the melting point fell in the range of 155 to 158.5 °C. Also, the inhibition at 25 µM in series [1] (setting [2]) came to 23%.
The like results for `C/C(=N\OCCCOc1ccc(C(=O)O)c(NC(=O)c2ccc(C(F)(F)F)cc2)c1)c1ccccc1` [Compound 23, 4-[3-({[(1E)-1-Phenylethylidene]amino}oxy)propoxy]-2-{[4-(trifluoromethyl)benzoyl]amino}benzoic acid] were, in that order, 174.3 to 175.7 °C and 26%.
Regarding `CC(C)(C)c1ccc(/C=N/OCCOc2ccc(C(=O)O)c(OC(=O)c3ccccc3)c2)cc1` [Compound 11, 2-(Benzoyloxy)-4-{2-[({(E)-[4-(tert-butyl)phenyl]methylidene}amino)oxy]ethoxy}benzoic Acid], the melting point lay in the range of 129.3 to 130.6 °C. In addition, in series [1], the IC50 turned out to be 8.4 µM.
For `CC(C)(C)c1ccc(/C=N/OCCCOc2ccc(C(=O)O)c(NC(=O)/C=C/c3ccc(-c4ccccc4)cc3)c2)cc1` [Compound 35, 2-{[(2E)-3-(1,1′-Biphenyl-4-yl)prop-2-enoyl]amino}-4-[3-({[(1E)-(4-tert-butylphenyl)methylidene]amino}oxy)propoxy]-benzoic Acid], the melting point was in the range of 169 to 171 °C. Also, in series [1] (setting [2]), the inhibition at 25 µM was determined as 16%.
Turning to `CC(C)(C)c1ccc(C=NOCCOc2ccc(C(=O)O)c(O)c2)cc1` [Compound 7, 4-{2-[({[4-(tert-Butyl)phenyl]methylidene}amino)oxy]ethoxy}-2-hydroxybenzoic Acid], the melting point lay within 161.4 to 162.7 °C. Also, the inhibition at 25 µM in series [1] (setting [2]) amounted to 33%.
For `COc1ccc(C(=O)Oc2cc(OCCO/N=C/c3ccc(C(C)(C)C)cc3)ccc2C(=O)O)cc1` [Compound 9, 4-{2-[({(E)-[4-(tert-Butyl)phenyl]methylidene}amino)oxy]ethoxy}-2-[(4-methoxybenzoyl)oxy]benzoic Acid], the melting point was in the range of 115.5 to 117.5 °C. In series [1], the IC50 came out at 25.6 µM.
The like results for `C/C(=N\OCCOc1ccc(C(=O)O)c(O)c1)c1ccc(C(C)(C)C)cc1` [Compound 5, 4-{2-[({(E)-1-[4-(tert-Butyl)-phenyl]-ethylidene}amino)oxy]-ethoxy}-2-hydroxy-benzoic Acid] were, in that order, 157.4 to 158.7 °C and 20.2 µM.
The compound `CC(C)(C)c1ccc(C=NOCc2ccc(CC(=O)O)cc2)cc1` [Compound 3, [4-(4-tert-Butyl-benzylideneaminooxymethyl]-phenyl}-acetic Acid] registered a melting point of 93.3 to 96.2 °C. The inhibition at 25 µM in series [1] (setting [2]) worked out at 19%.
The compound `C/C(=N\OCCOc1ccc(C(=O)O)c(Cl)c1)c1ccc(C(C)(C)C)cc1` [Compound 13, 4-{2-[({(E)-1-[4-(tert-Butyl)phenyl]ethylidene}amino)oxy]-ethoxy}-2-chloro-benzoic Acid] returned a melting point of 142.7 to 143.9 °C. Moreover, the inhibition at 25 µM in series [1] (setting [2]) worked out at 34%.
Take `C/C(=N\OCCOc1ccc(C(=O)O)cc1Cl)c1ccc(C(C)(C)C)cc1` [Compound 12, 4-{2-[({(E)-1-[4-(tert-Butyl)phenyl]ethylidene}amino)oxy]-ethoxy}-3-chloro-benzoic Acid]: the melting point lay within 167.1 to 168.8 °C. Besides, the IC50 in series [1] came to 11.2 µM.
With `CC(C)(C)c1ccc(C=NOCCCOc2ccc(Cc3nnn[nH]3)cc2)cc1` [Compound 17, 4-(tert-Butyl)benzaldehyde 0-{3-[4-(1H-tetraazol-5-ylmethyl)-phenoxy]-propyl}oxime], in series [1] (setting [2]), the “% Inhibition @ 25 μM” value is listed as 35%.
In turn, `O=C(Nc1cc(OCCCO/N=C/c2ccc(-c3ccccc3)cc2)ccc1C(=O)O)c1ccc(OC(F)(F)F)cc1` [Compound 29, 4-[3-({[(1E)-1,1′-Biphenyl-4-ylmethylidene]amino}oxy)propoxy]-2-{[4-(trifluoromethoxy)benzoyl]amino}benzoic Acid] displayed a melting point of 194.5 to 195.5 °C. Moreover, the inhibition at 25 µM in series [1] (setting [2]) turned out to be 70%.

The record behind these values is US7420083B2, “Substituted aryloximes” (Wyeth, priority 2003, dated 2008).
